Test [1] concerns HLA-A*0201 transgenic HHD mice. In words: Tetramer-positive CD8 T cells in draining lymph nodes of vaccinated HHD mice. To be noted: for Responding mice (response to at least one peptide) / Frequency of strong responses (% of tetramer-positive CD8 cells at least twice the cutoff value; ++): HHD mice vaccinated with polypeptide; for Trispecific response: HHD mice, response to all three peptides. It is filed as in vivo, mouse. As to the method:
HHD mice were injected subcutaneously with 100 μg of nonamer/decamer peptides, and with 240 μg of polypeptide emulsified in incomplete Freund's adjuvant (IFA) plus 150 μg of the I-A^b restricted HBVcore128 T-helper epitope. Eleven days later spleen cells (5×10^7 cells in 10 ml) from immunized mice were stimulated in vitro with peptide (10 μM) in RPMI 1640+10% FCS for five days. The CTL lines were established by weekly re-stimulation in vitro with irradiated spleen cells in the presence of diminishing peptide concentrations (1 to 0.1 μM) and 50 U/ml IL-2 (Proleukin, Chiron Corp., Emeryville, Calif.).
For tetramer labeling, cells from inguinal and para-aortic lymph nodes (LN) of immunized mice were stained with 15 μg/ml PE-coupled HLA-A2/TERT988Y, HLA-A2/MAGE-A248V9 and HLA-A2/HER-2/neu402Y tetramers (Proimmune, Oxford, UK) in the presence of an anti-Fc receptor antibody (clone 2.4 G2) in 20 μl of PBS, 2% FCS for 1 h at room temperature. The cells were washed once in PBS, 2% FCS and then stained with anti-CD44-FITC (clone 1M.178), anti-TCRβ-cychrome (clone H57) and anti-CD8α-APC (clone 53.6.7) (BD Biosciences, Le Pont de Claix, France) in 50 μl of PBS, 2% FCS for 30 min at 4° C. The cells were then washed once in PBS, 2% FCS and immediately analyzed in a FACSCalibur® flow cytometer (Becton Dickinson, San Jose, Calif., USA).
The simplest way to stimulate a polyspecific CTL response in vivo would be to inject a mixture of the relevant peptides. Therefore, the inventors examined whether HHD mice vaccinated with an equimolar mixture of peptides HER-2/neu402Y, TERT988Y and MAGE-A248V9 developed a polyspecific response in vivo. The immune response was evaluated by measuring the frequency of peptide-specific CD8 T cells in the lymph nodes draining the injection site seven days after vaccination, using specific tetramers. Before use, each tetramer was validated with peptide-specific CTL lines as previously described (Miconnet et al., 2002). A positive response was recorded when the percentage of tetramer-positive CD8 cells was higher than the mean percentage+3 standard deviations of tetramer-positive CD8 cells in six naive mice (0.16% for MAGE-A248V9, 0.13% for HER-2/neu402Y and 0.16% for TERT988Y). Eight mice were vaccinated with the peptide mixture in two independent experiments (Table 2). […] Three mice responded to one peptide and five responded to two peptides. Responses to MAGE-A248V9 were more frequent (6/8 mice) than responses to HER-2/neu402Y (4/8 mice) or TERT988Y (3/8 mice).
HHD mice were vaccinated with each polypeptide, and CD8 T cells specific for the individual peptides were identified in draining lymph nodes by using specific tetramers. All six polypeptide variants were immunogenic in HHD mice (i.e., they generated a response to at least one peptide) but the frequency of responding mice varied from one variant to the other. The most immunogenic variants were Poly-1, Poly-3 and Poly-6, with 100%, 87% and 83% of responding mice, respectively (Table 6). Poly-2, Poly-4 and Poly-5 induced a response in respectively 57%, 62% and 62% of vaccinated mice. The frequency of strong responses (% of tetramer-positive CD8 cells at least twice the cutoff value; designated ++) was highest with Poly-6 (41% of all responses), Poly-3 (30% of all responses) and Poly-1 (25% of all responses). The responses were directed against MAGE-A248V9 in 74% of responding mice, HER-2/neu402Y in 71% and TERT988Y in 55%.

Test [2] relates to PBMC from healthy HLA-A*0201 donors. In words: In vitro stimulation of healthy donor PBMC, intracellular IFNγ labeling of CD8 cells. It is filed as cell-based, human. To be noted: for Donors with responses to all three peptides (trispecific): healthy donor PBMC, IFNγ-producing CD8 cells. As to the method: PBMC were collected by leukapheresis from healthy HLA-A*0201 volunteers. Dendritic cells (DC) were produced from adherent cells (2×10^6 cells/ml) cultured for seven days with 500 IU/ml GM-CSF (Leucomax®, Schering-Plough, Kenilworth, N.J.) and 500 IU/ml IL-4 (R&D Systems, Minneapolis, Minn.) in complete medium (RPMI 1640 supplemented with 10% heat-inactivated human AB serum, […] and antibiotics). On day 7, DC were pulsed with 10 μM peptides or polypeptides for 2 h; the maturation agents Poly I:C (Sigma, Oakville, Canada) at 100 ng/ml, and anti-CD40 mAb (clone G28-5, ATCC, Manassas, Va.) at 2 μg/ml were added to the culture and DCs were further incubated at 37° C. overnight or for up to 48 hours. Mature DC were then irradiated (3500 rads). CD8+ cells were purified by positive selection with CD8 MicroBeads (Miltenyi Biotec, Auburn, Calif.) according to the manufacturer's instructions. CD8^+ cells (2×10^5)+CD8^− cells (6×10^4) were stimulated with 2×10^4 peptide-pulsed DC in complete culture medium supplemented with 1000 IU/ml IL-6 and 5 IU/ml IL-12 (R&D Systems, Minneapolis, Minn.) in round-bottomed 96-well plates. From day 7, cultures were restimulated weekly with peptide-loaded DC in the presence of 20 IU/ml IL-2 (Proleukin, Chiron Corp., Emeryville, Calif.) and 10 ng/ml IL-7 (R&D Systems, Minneapolis, Minn.). After the third restimulation, CD8 cells were tested in an IFN-γ release assay.
T cells (10^5) were incubated with 2×10^5 T2 cells loaded with stimulating peptide in the presence of 20 μg/ml Brefeldin-A (Sigma, Oakville, Canada). Six hours later they were washed, stained with r-phycoerythrin-conjugated anti-CD8 antibody (Caltag Laboratories, Burlingame, Calif.) in PBS for 25 min at 4° C., washed again, and fixed with 4% PFA. The cells were then permeabilized with PBS, 0.5% BSA, 0.2% saponin (Sigma, Oakville, Canada), and labeled with an allophycocyanin-conjugated anti-IFNγ mAb (PharMingen, Mississauga, Canada) for 25 min at 4° C. before analysis with a FACSCalibur™ flow cytometer (Becton Dickinson, Mountain View, Calif.).
The inability of the peptide mixture to stimulate a trispecific CD8 T cell response was confirmed in vitro with human cells. […] PBMC activation was evaluated by measuring the percentage of IFNγ-producing CD8 cells by means of intracellular labeling. A positive response was recorded when the percentage of activated PBMC was at least twice that obtained with an irrelevant peptide. […]
In vitro immune responses were assessed by measuring the percentage of CD8 cells producing IFNγ after specific peptide activation. […]

“YLEEITGYL-YLEYRQVPV-YLQVNSLQTV (SEQ ID No: 6) (YLEEITGYLYLEYRQVPVYLQVNSLQTV; Poly-4) [polypeptide variant, arrangement N-M-T]”: the “Responding mice (response to at least one peptide)” value (“Responding mice” below) in test [1] (tetramers) is recorded as 62%. The Trispecific response in test [1] is 37.5 % of vaccinated mice.

As to “YLEEITGYL-YLQVNSLQTV-YLEYRQVPV (SEQ ID No: 5) (YLEEITGYLYLQVNSLQTVYLEYRQVPV; Poly-3) [polypeptide variant, arrangement N-T-M]”, in test [1], the “Frequency of strong responses (% of tetramer-positive CD8 cells at least twice the cutoff value; ++)” value is listed as 30 % of all responses and the Trispecific response is reported as 12.5 % of vaccinated mice. Moreover, the “Responding mice” value in test [1] (tetramers) was 87%.

Regarding “YLEYRQVPV-YLEEITGYL-YLQVNSLQTV (SEQ ID No: 3) (YLEYRQVPVYLEEITGYLYLQVNSLQTV; Poly-1) [polypeptide variant of MAGE-A248V9, HER-2/neu402Y and TERT988Y, arrangement M-N-T]”, in test [1], the “Frequency of strong responses (% of tetramer-positive CD8 cells at least twice the cutoff value; ++)” value is given as 25 % of all responses and the Trispecific response is reported as 28.5 % of vaccinated mice. Further, in test [1] (tetramers), the “Responding mice” value was 100%. Further, the “Donors with responses to all three peptides (trispecific)” value in test [2] was 25 % of donors.

Consider “YLEYRQVPV-YLQVNSLQTV-YLEEITGYL (SEQ ID No: 4) (YLEYRQVPVYLQVNSLQTVYLEEITGYL; Poly-2) [polypeptide variant, arrangement M-T-N]”, for which, in test [1] (tetramers), the “Responding mice” value was found to be 57%. The “Immunogenicity in HHD mice, in words” value in test [1] (response to at least one peptide) is reported as “very weakly immunogenic”. In test [1] (vaccinated HHD mice, tetramers), the “Mice responding simultaneously to all three peptides (trispecific response), in words” value is listed as “did not induce a trispecific response in any mice”.

As for “YLQVNSLQTV-YLEEITGYL-YLEYRQVPV (SEQ ID No: 7) (YLQVNSLQTVYLEEITGYLYLEYRQVPV; Poly-5) [polypeptide variant, arrangement T-N-M]”, in test [1] (tetramers), the “Responding mice” value stood at 62%. Further, the Trispecific response in test [1] is recorded as 25 % of vaccinated mice.

With “YLQVNSLQTV-YLEYRQVPV-YLEEITGYL (SEQ ID No: 2) (YLQVNSLQTVYLEYRQVPVYLEEITGYL; Poly-6) [polypeptide variant, arrangement T-M-N]”, in test [1], the “Frequency of strong responses (% of tetramer-positive CD8 cells at least twice the cutoff value; ++)” value is reported as 41 % of all responses and the Trispecific response is on record as 67 % of vaccinated mice. Also, in test [1] (tetramers), the “Responding mice” value is recorded as 83%. Further, in test [2] (against MAGE-A248V9 in donors #D7017 and #D7225, against HER-2/neu402Y in donor #D7744), the “Strength of responses in human donor cells, in words” value is recorded as “strongest responses”. Further, in test [2] (donor #D7225), the “Peptides the donor's CD8 cells responded to” value was “all three peptides”. Besides, the “Donors with responses to all three peptides (trispecific)” value in test [2] was 80 % of donors.
